Values of other authors in US20170106067A1, “COMBINATORIAL IMMUNOTHERAPY FOR PANCREATIC CANCER TREATMENT” (THE JOHNS HOPKINS UNIVERSITY, priority 2014, published 2017).

Test system: metastatic PDA
Conditions: Le et al., 2013

ipilimumab
clinical anti tumor activity in metastatic PDA patients: failed to demonstrate durable and effective anti tumor activity
